This is an account of results in patent publication US10633419B2, “Immunomodulators” (BRISTOL-MYERS SQUIBB COMPANY, priority 2014, dated 2020).

Starred links: 1 amine or outer side, 2 acyl side, 3 side chain; linkers in the order of their positions; H or OH if unused. Positions of bridges follow the written chain, without caps; N, C: chain ends. Non-standard residues stand in square brackets, D forms with d. Residues, ends and D or L forms follow the SMILES beside them. *: point of attachment. Succinyl(O-RRR-αToc) = Cc1c(C)c2c(c(C)c1OC(=O)CCC(=O)*)CC[C@@](C)(CCC[C@H](C)CCC[C@H](C)CCCC(C)C)O2; X21 = O=C([C@H](CC1=CC(CCCCCN[*:3])N=N1)N[*:1])[*:2]; Hyp = O=C(O)[C@@H]1C[C@@H](O)CN1; NMeNle = CCCC[C@H](NC)C(=O)O; NMeA = CN[C@@H](C)C(=O)O

T1 sequence (Q9NZQ7 with tags, fused parts or gaps): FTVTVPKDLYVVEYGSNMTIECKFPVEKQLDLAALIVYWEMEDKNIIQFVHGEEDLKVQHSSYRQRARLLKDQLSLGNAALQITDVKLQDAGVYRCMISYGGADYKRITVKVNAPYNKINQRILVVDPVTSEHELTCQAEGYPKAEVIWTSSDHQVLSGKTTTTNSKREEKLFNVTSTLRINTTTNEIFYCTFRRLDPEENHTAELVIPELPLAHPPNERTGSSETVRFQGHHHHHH

One experiment has as its target T1, PD-L1 (Homo sapiens, UniProt Q9NZQ7).
T1 construct: hPDL1(19-239)-TVMV-His; made in house; host or cells: HEK293T
As to the kind of experiment: PD-1/PD-L1 Homogenous Time-Resolved Fluorescence (HTRF) binding assay (PD-1-Ig/PD-L1-His).
Conditions: not given
The procedure, abridged: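 Inhibitors pre-incubated 15 min with PD-L1-His (10 nM final), then PD-1-Ig (20 nM final) added for 15 min in dPBS/0.1% BSA/0.05% Tween-20. Eu-cryptate anti-Ig (1 nM) and APC anti-His (20 nM) added, 30 min equilibration, 665/620 nm HTRF ratio read.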
For orientation: In TR-FRET formats the signal depends on donor and acceptor labels being close together.
The IC50 is the concentration at which inhibition is half-maximal. The molecule `CCCC[C@H]1C(=O)N(C)[C@@H](CCCC)C(=O)N[C@@H](CCC(=O)O)C(=O)N[C@H](C(=O)NCC(=O)N[C@@H](CC2=CC(CCCCCNC(=O)CCC(=O)Oc3c(C)c(C)c4c(c3C)CC[C@@](C)(CCC[C@H](C)CCC[C@H](C)CCCC(C)C)O4)N=N2)C(=O)NCC(N)=O)CSCC(=O)N[C@@H](Cc2ccc(O)cc2)C(=O)N(C)[C@@H](C)C(=O)N[C@@H](CC(=O)O)C(=O)N2CCC[C@H]2C(=O)N[C@@H](Cc2c[nH]cn2)C(=O)N[C@@H](CCCCN)C(=O)N2C[C@H](O)C[C@H]2C(=O)N[C@@H](Cc2c[nH]c3ccccc23)C(=O)N[C@@H](CCCCN)C(=O)N[C@@H](Cc2c[nH]c3ccccc23)C(=O)N1C` (some centres unmarked) [Example 14051] ({CH2CO}-Y[NMeA]DPHK[Hyp]WKW[NMeNle][NMeNle]ECG[X21](Succinyl(O-RRR-αToc))G-NH2; thioether N-14) came in with an IC50 of 100 to 1600 nM.
`CCCC[C@H]1C(=O)N(C)[C@@H](CCCC)C(=O)N[C@@H](CCC(=O)O)C(=O)N[C@H](C(=O)NCC(=O)N[C@@H](Cc2cn(CCOCCOCCOCCOCCOCCOCCOCCOC(=O)CCC(=O)Oc3c(C)c(C)c4c(c3C)CC[C@@](C)(CCC[C@H](C)CCC[C@H](C)CCCC(C)C)O4)nn2)C(=O)NCC(N)=O)CSCC(=O)N[C@@H](Cc2ccc(O)cc2)C(=O)N(C)[C@@H](C)C(=O)N[C@@H](CC(=O)O)C(=O)N2CCC[C@H]2C(=O)N[C@@H](Cc2c[nH]cn2)C(=O)N[C@@H](CCCCN)C(=O)N2C[C@H](O)C[C@H]2C(=O)N[C@@H](Cc2c[nH]c3ccccc23)C(=O)N[C@@H](CCCCN)C(=O)N[C@@H](Cc2c[nH]c3ccccc23)C(=O)N1C` [Example 14052] gave an IC50 of 10 to 99 nM.
Same read-out and setting: then `CCCC[C@H]1C(=O)N(C)[C@@H](CCCC)C(=O)N[C@@H](CCC(=O)O)C(=O)N[C@H](C(=O)NCC(=O)N[C@@H](Cc2cn(CCOCCOCCOCCOCCOCCOC(=O)CCC(=O)Oc3c(C)c(C)c4c(c3C)CC[C@@](C)(CCC[C@H](C)CCC[C@H](C)CCCC(C)C)O4)nn2)C(=O)NCC(N)=O)CSCC(=O)N[C@@H](Cc2ccc(O)cc2)C(=O)N(C)[C@@H](C)C(=O)N[C@@H](CC(=O)O)C(=O)N2CCC[C@H]2C(=O)N[C@@H](Cc2c[nH]cn2)C(=O)N[C@@H](CCCCN)C(=O)N2C[C@H](O)C[C@H]2C(=O)N[C@@H](Cc2c[nH]c3ccccc23)C(=O)N[C@@H](CCCCN)C(=O)N[C@@H](Cc2c[nH]c3ccccc23)C(=O)N1C` [Example 14053], with 100 to 1600 nM; and `CCCC[C@H]1C(=O)N(C)[C@@H](CCCC)C(=O)N[C@@H](CCC(=O)O)C(=O)N[C@H](C(=O)NCC(=O)N[C@@H](Cc2cn(CCCCCNC(=O)CCC(=O)Oc3c(C)c(C)c4c(c3C)CC[C@@](C)(CCC[C@H](C)CCC[C@H](C)CCCC(C)C)O4)nn2)C(=O)N[C@@H](CC(=O)O)C(N)=O)CSCC(=O)N[C@@H](Cc2ccc(O)cc2)C(=O)N(C)[C@@H](C)C(=O)N[C@@H](CC(=O)O)C(=O)N2CCC[C@H]2C(=O)N[C@@H](Cc2c[nH]cn2)C(=O)N[C@@H](CCCCN)C(=O)N2C[C@H](O)C[C@H]2C(=O)N[C@@H](Cc2c[nH]c3ccccc23)C(=O)N[C@@H](CCCCN)C(=O)N[C@@H](Cc2c[nH]c3ccccc23)C(=O)N1C` [Example 14056], with 100 to 1600 nM; and `CCCC[C@H]1C(=O)N(C)[C@@H](CCCC)C(=O)N[C@@H](CCCNC(=N)N)C(=O)N[C@H](C(=O)NCC(=O)N[C@@H](Cc2cn(CCCCCNC(=O)CCC(=O)Oc3c(C)c(C)c4c(c3C)CC[C@@](C)(CCC[C@H](C)CCC[C@H](C)CCCC(C)C)O4)nn2)C(N)=O)CSCC(=O)N[C@@H](Cc2ccc(O)cc2)C(=O)N(C)[C@@H](C)C(=O)N[C@@H](CC(N)=O)C(=O)N2CCC[C@H]2C(=O)N[C@@H](CN)C(=O)N[C@@H](CC(C)C)C(=O)N2C[C@H](O)C[C@H]2C(=O)N[C@@H](Cc2c[nH]c3ccccc23)C(=O)N[C@@H](CO)C(=O)N[C@@H](Cc2csc3ccccc23)C(=O)N1C` [Example 14058], with 100 to 1600 nM.
On the same count and under the same terms, next, `CCCC[C@H]1C(=O)N(C)[C@@H](CCCC)C(=O)N[C@@H](CCC(=O)O)C(=O)N[C@H](C(=O)NCC(=O)N[C@@H](Cc2cn(CCOCCOCCOCCOC(=O)CCC(=O)Oc3c(C)c(C)c4c(c3C)CC[C@@](C)(CCC[C@H](C)CCC[C@H](C)CCCC(C)C)O4)nn2)C(=O)NCC(N)=O)CSCC(=O)N[C@@H](Cc2ccc(O)cc2)C(=O)N(C)[C@@H](C)C(=O)N[C@@H](CC(=O)O)C(=O)N2CCC[C@H]2C(=O)N[C@@H](Cc2c[nH]cn2)C(=O)N[C@@H](CCCCN)C(=O)N2C[C@H](O)C[C@H]2C(=O)N[C@@H](Cc2c[nH]c3ccccc23)C(=O)N[C@@H](CCCCN)C(=O)N[C@@H](Cc2c[nH]c3ccccc23)C(=O)N1C` [Example 14060]: 100 to 1600 nM.

The experiment is the same for the next values; noted with them: inhibition of PD-1-Ig binding to PD-L1-TVMV-His; value given as range class; read-out: HTRF IC50.
As to `CCCCCCCCCCCCCCCC(=O)N[C@@H](CCn1cc(C[C@H](NC(=O)CNC(=O)[C@@H]2CSCC(=O)N[C@@H](Cc3ccc(O)cc3)C(=O)N(C)[C@@H](C)C(=O)N[C@@H](CC(=O)O)C(=O)N3CCC[C@H]3C(=O)N[C@@H](Cc3c[nH]cn3)C(=O)N[C@@H](CCCCN)C(=O)N3C[C@H](O)C[C@H]3C(=O)N[C@@H](Cc3c[nH]c4ccccc34)C(=O)N[C@@H](CCCCN)C(=O)N[C@@H](Cc3c[nH]c4ccccc34)C(=O)N(C)[C@@H](CCCC)C(=O)N(C)[C@@H](CCCC)C(=O)N[C@@H](CCC(=O)O)C(=O)N2)C(=O)NCC(N)=O)nn1)C(=O)O` [Example 14059], the IC50 lay in the range of 10 to 99 nM.
Same read-out and setting: next, `CCCCCCCCCCCCCCCC(=O)N[C@@H](CCn1cc(C[C@H](NC(=O)CNC(=O)[C@@H]2CSCC(=O)N[C@@H](Cc3ccc(O)cc3)C(=O)N(C)[C@@H](C)C(=O)N[C@@H](CC(=O)O)C(=O)N3CCC[C@H]3C(=O)N[C@@H](Cc3c[nH]cn3)C(=O)N[C@@H](CCCCN)C(=O)N3C[C@H](O)C[C@H]3C(=O)N[C@@H](Cc3c[nH]c4ccccc34)C(=O)N[C@@H](CCCCN)C(=O)N[C@@H](Cc3c[nH]c4ccccc34)C(=O)N(C)[C@@H](CCCC)C(=O)N(C)[C@@H](CCCC)C(=O)N[C@@H](CCC(=O)O)C(=O)N2)C(=O)N[C@@H](CC(=O)O)C(N)=O)nn1)C(=O)O` [Example 14061]: 10 to 99 nM; `CCCCCCCCCCCCCCCC(=O)N[C@@H](CCn1cc(C[C@H](NC(=O)CNC(=O)[C@@H]2CSCC(=O)N[C@@H](Cc3ccc(O)cc3)C(=O)N(C)[C@@H](C)C(=O)N[C@@H](CC(=O)O)C(=O)N3CCC[C@H]3C(=O)N[C@@H](Cc3c[nH]cn3)C(=O)N[C@@H](CCC(N)=O)C(=O)N3C[C@H](O)C[C@H]3C(=O)N[C@@H](Cc3c[nH]c4ccccc34)C(=O)N[C@@H](CO)C(=O)N[C@@H](Cc3c[nH]c4ccccc34)C(=O)N(C)[C@@H](CCCC)C(=O)N(C)[C@@H](CCCC)C(=O)N[C@@H](CCC(=O)O)C(=O)N2)C(=O)NCC(N)=O)nn1)C(=O)O` [Example 14062]: 10 to 99 nM; `CCCC[C@H]1C(=O)N(C)[C@@H](CCCC)C(=O)N[C@@H](CCC(=O)O)C(=O)N[C@H](C(=O)NCC(=O)N[C@@H](Cc2cn(CCOCCOCCOCCOC)nn2)C(=O)NCC(N)=O)CSCC(=O)N[C@@H](Cc2ccc(O)cc2)C(=O)N(C)[C@@H](C)C(=O)N[C@@H](CC(=O)O)C(=O)N2CCC[C@H]2C(=O)N[C@@H](Cc2c[nH]cn2)C(=O)N[C@@H](CCCCN)C(=O)N2C[C@H](O)C[C@H]2C(=O)N[C@@H](Cc2c[nH]c3ccccc23)C(=O)N[C@@H](CCCCN)C(=O)N[C@@H](Cc2c[nH]c3ccccc23)C(=O)N1C` [Example 14063]: 10 to 99 nM.
Same read-out and setting: next, `CCCC[C@H]1C(=O)N(C)[C@@H](CCCC)C(=O)N[C@@H](CCC(=O)O)C(=O)N[C@H](C(=O)NCC(=O)N[C@@H](Cc2cn(CC[C@H](NC(=O)CCCCCCCCCCCCCCC(=O)O)C(=O)O)nn2)C(=O)NCC(N)=O)CSCC(=O)N[C@@H](Cc2ccc(O)cc2)C(=O)N(C)[C@@H](C)C(=O)N[C@@H](CC(=O)O)C(=O)N2CCC[C@H]2C(=O)N[C@@H](Cc2c[nH]cn2)C(=O)N[C@@H](CCCCN)C(=O)N2C[C@H](O)C[C@H]2C(=O)N[C@@H](Cc2c[nH]c3ccccc23)C(=O)N[C@@H](CCCCN)C(=O)N[C@@H](Cc2c[nH]c3ccccc23)C(=O)N1C` [Example 14064]: 0.3 to 9.9 nM.
As for `CCCC[C@H]1C(=O)N(C)[C@@H](CCCC)C(=O)N[C@@H](CCC(=O)O)C(=O)N[C@H](C(=O)NCC(=O)N[C@@H](Cc2cn(CC[C@H](NC(=O)CCCCCCCCCCCCCCC(=O)O)C(=O)O)nn2)C(=O)N[C@@H](CC(=O)O)C(N)=O)CSCC(=O)N[C@@H](Cc2ccc(O)cc2)C(=O)N(C)[C@@H](C)C(=O)N[C@@H](CC(=O)O)C(=O)N2CCC[C@H]2C(=O)N[C@@H](Cc2c[nH]cn2)C(=O)N[C@@H](CCCCN)C(=O)N2C[C@H](O)C[C@H]2C(=O)N[C@@H](Cc2c[nH]c3ccccc23)C(=O)N[C@@H](CCCCN)C(=O)N[C@@H](Cc2c[nH]c3ccccc23)C(=O)N1C` [Example 14065], the IC50 fell in the range of 10 to 99 nM.
The same measure, in the same setting: next, `CCCC[C@H]1C(=O)N(C)[C@@H](CCCC)C(=O)N[C@@H](CCCNC(=N)N)C(=O)N[C@H](C(=O)NCC(=O)N[C@@H](Cc2cn(CC[C@H](NC(=O)CCCCCCCCCCCCCCC(=O)O)C(=O)O)nn2)C(N)=O)CSCC(=O)N[C@@H](Cc2ccc(O)cc2)C(=O)N(C)[C@@H](C)C(=O)N[C@@H](CC(N)=O)C(=O)N2CCC[C@H]2C(=O)N[C@@H](CN)C(=O)N[C@@H](CC(C)C)C(=O)N2C[C@H](O)C[C@H]2C(=O)N[C@@H](Cc2c[nH]c3ccccc23)C(=O)N[C@@H](CO)C(=O)N[C@@H](Cc2c[nH]c3ccccc23)C(=O)N1C` [Example 14066]: 0.3 to 9.9 nM; `CCCC[C@H]1C(=O)N(C)[C@@H](CCCC)C(=O)N[C@@H](CCC(=O)O)C(=O)N[C@H](C(=O)NCC(=O)N[C@@H](Cc2cn(CC[C@H](NC(=O)CCCCCCCCCCCCCCC(=O)O)C(=O)O)nn2)C(N)=O)CSCC(=O)N[C@@H](Cc2ccc(O)cc2)C(=O)N(C)[C@@H](C)C(=O)N[C@@H](CC(=O)O)C(=O)N2CCC[C@H]2C(=O)N[C@@H](Cc2c[nH]cn2)C(=O)N[C@@H](CCC(N)=O)C(=O)N2C[C@H](O)C[C@H]2C(=O)N[C@@H](Cc2c[nH]c3ccccc23)C(=O)N[C@@H](CO)C(=O)N[C@@H](Cc2c[nH]c3ccccc23)C(=O)N1C` [Example 14068]: 10 to 99 nM.
